# From patent US11440923B2, “Substituted macrocyclic indole derivatives” (Bayer Aktiengesellschaft, priority 2017, dated 2022)
# Where a name gives a salt, the structure may show the parent alone. Read-outs that look alike come from different tables or passages of the source.
# Experiments:
# [1] = test system: SUDHL10 cells; assay: Induction of cytotoxicity in SUDHL10 cells (Assay 6); assay type: cell-based; conditions: 5 h, CellTiter-Glo, read-out: Cytotox SUDHL10 IC50 (median)
# Method in brief: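 SUDHL5 and SUDHL10 cells plated and held overnight at 37° C, then incubated 5 h at 37° C with compound. Viability measured by CellTiter-Glo luminescence after 15 min shaking at room temperature. Cell-free medium wells served as control.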
# [2] = molecular target: BCL-XL (Homo sapiens (Human), UniProt Q07817); assay: Protein-protein interaction assay BCL-XL/Bad BH3 peptide (BCL-XL assay, TR-FRET); assay type: binding; conditions: read-out: BCL-XL Assay IC50 (median)
# Sequence of BCL-XL (Q07817 1-212): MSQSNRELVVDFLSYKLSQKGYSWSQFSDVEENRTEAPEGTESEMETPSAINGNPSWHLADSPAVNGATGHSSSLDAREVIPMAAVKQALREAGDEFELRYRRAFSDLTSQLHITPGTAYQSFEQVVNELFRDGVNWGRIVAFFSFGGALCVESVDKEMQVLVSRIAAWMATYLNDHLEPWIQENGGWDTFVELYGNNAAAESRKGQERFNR
# Method in brief: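 TR-FRET competition: 1 nM His-tagged human BCL-XL (1-212) versus 1 nM biotin-PEG Bad BH3 peptide tracer, buffer 50 mM Tris pH 7, NaCl, KF, DTT. Compound preincubated with protein 10 min at 22 °C; read after 1 h at 22 °C plus overnight at 4 °C. IC50 by 4-parameter regression of normalized ratios.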
# [3] = test system: HMC-1-8 cells; assay: Antiproliferation assay HMC-1-8 (Assay 7); assay type: cell-based
# Method in brief: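 IC50 values reflect growth relative to a day 0 baseline (CI) and DMSO vehicle (C0). Viable cells were quantified by CellTiter-Glo luminescence after 72 h treatment at 37 °C.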
# [4] = read-out: Antiproli HMC-1-8 IC50 median; 72 h, CellTiter-Glo
# [5] = 72 h, read-out: Antiproli HMC-1-8 IC50 median, 72 h, CellTiter-Glo
# [6] = 72 h, CellTiter-Glo, read-out: Antiproli HMC-1-8 IC50 median
SMILES,IC50 [1] [µM],IC50 [2] [µM],"IC50 ([3]; 72 h, CellTiter-Glo; read-out: Antiproli HMC-1-8 IC50 median) [µM]","IC50 [3, 4] [µM]","IC50 [3, 5] [µM]","IC50 ([1]; Homo sapiens, SU-DHL10, 5 h) [µM]","IC50 [3, 6] [µM]"
"CCc1c2c(nn1C)C(CCN1CCOCC1)OCCCCn1c(C(=O)O)c(CCCOc3cccc4cc(F)ccc34)c3ccc(F)c-2c31 (single isomer, unassigned; enantiomer 1) [Example 50, (+)-3-ethyl-4-fluoro-7-{3-[(6-fluoronaphthalen-1-yl)oxy]propyl}-2-methyl-15-[2-(morpholin-4-yl)ethyl]-2,10,11,12,13,15-hexahydropyrazolo[4′,3′:9,10][1,6]oxazacycloundecino[8,7,6-hi]indole-8-carboxylic Acid (Enantiomer 1)]",0.027,> 20,0.392,–,–,–,–
"CCc1c2c(nn1C)C(CCN1CCN(C)CC1)OCCCCn1c(C(=O)O)c(CCCOc3cccc4cc(F)ccc34)c3ccc(Cl)c-2c31 (racemic) [Example 68, 4-chloro-3-ethyl-7-{3-[(6-fluoronaphthalen-1-yl)oxy]propyl}-2-methyl-(15-rac)-[2-(4-methylpiperazin-1-yl)ethyl]-2,10,11,12,13,15-hexahydropyrazolo[4′,3′:9,10][1,6]oxazacycloundecino[8,7,6-hi]indole-8-carboxylic Acid—N-ethylethanamine Salt (Mixture 1 of Stereoisomers)]",0.15,> 20,–,2.62,–,–,–
"Cc1c2c(nn1C)C(C1CC1)OCCCCn1c(C(=O)O)c(CCCOc3cccc4ccccc34)c3ccc(Cl)c-2c31 (single isomer, unassigned; enantiomer 1) [Example 35, (+)-4-chloro-15-cyclopropyl-2,3-dimethyl-7-{3-[(naphthalen-1-yl)oxy]propyl}-2,10,11,12,13,15-hexahydropyrazolo[4′,3′:9,10][1,6]oxazacycloundecino[8,7,6-hi]indole-8-carboxylic Acid N-ethylethanamine Salt (Enantiomer 1)]",6.7,> 20,–,–,19.7,–,–
"Cc1c2c(nn1C)C(CCO)OCCCCn1c(C(=O)O)c(CCCOc3cccc4ccccc34)c3ccc(Cl)c-2c31 (racemic) [Example 26, (rac)-4-chloro-15-(2-hydroxyethyl)-2,3-dimethyl-7-{3-[(naphthalen-1-yl)oxy]propyl}-2,10,11,12,13,15-hexahydropyrazolo[4′,3′:9,10][1,6]oxazacycloundecino[8,7,6-hi]indole-8-carboxylic Acid]",–,> 20,–,–,–,0.87,6.78
"CCc1c2c(nn1C)C(CC(C)(C)O)OCCCCn1c(C(=O)O)c(CCCOc3cccc4cc(F)ccc34)c3ccc(Cl)c-2c31 (single isomer, unassigned; enantiomer 21) [Example 54, (−)-4-chloro-3-ethyl-7-{3-[(6-fluoronaphthalen-1-yl)oxy]propyl}-15-(2-hydroxy-2-methylpropyl)-2-methyl-2,10,11,12,13,15-hexahydropyrazolo[4′,3′:9,10][1,6]oxazacycloundecino[8,7,6-hi]indole-8-carboxylic Acid—N-ethylethanamine Salt (Enantiomer 21]",17,14.3,–,20.2,–,–,–
"CCC1OCCCCn2c(C(=O)O)c(CCCOc3cccc4ccccc34)c3ccc(Cl)c(c32)-c2c1nn(C)c2C (racemic) [Example 25, (rac)-4-chloro-15-ethyl-2,3-dimethyl-7-{3-[(naphthalen-1-yl)oxy]propyl}-2,10,11,12,13,15-hexahydropyrazolo[4′,3′:9,10][1,6]oxazacycloundecino[8,7,6-hi]indole-8-carboxylic Acid]",–,> 20,–,–,–,8.8,12.9
"Cc1c2c(nn1C)C(CCN1CCOCC1)OCCCCn1c(C(=O)O)c(CCCOc3cccc4ccccc34)c3ccc(Cl)c-2c31 (single isomer, unassigned; enantiomer 1) [Example 14, 4-chloro-2,3-dimethyl-15-[2-(morpholin-4-yl)ethyl]-7-{3-[(naphthalen-1-yl)oxy]propyl}-2,10,11,12,13,15-hexahydropyrazolo[4′,3′:9,10][1,6]oxazacycloundecino[8,7,6-hi]indole-8-carboxylic Acid (Enantiomer 1)]",0.034,> 20,–,–,–,–,0.381
"CCc1c2c(nn1C)C(CCC1CCOCC1)OCCCCn1c(C(=O)O)c(CCCOc3cccc4cc(F)ccc34)c3ccc(Cl)c-2c31 (racemic) [Example 60, (rac)-4-chloro-3-ethyl-7-{3-[(6-fluoronaphthalen-1-yl)oxy]propyl}-2-methyl-(15-rac)-[2-(oxan-4-yl)ethyl]-2,10,11,12,13,15-hexahydropyrazolo[4′,3′:9,10][1,6]oxazacycloundecino[8,7,6-hi]indole-8-carboxylic Acid]",0.087,15.4,–,–,–,–,0.951
"Cc1c2c(nn1C)C(C1CC1)OCCCCn1c(C(=O)O)c(CCCOc3cccc4ccccc34)c3ccc(Cl)c-2c31 (racemic) [Example 28, (rac)-4-Chloro-15-cyclopropyl-2,3-dimethyl-7-{3-[(naphthalen-1-yl)oxy]propyl}-2,10,11,12,13,15-hexahydropyrazolo[4′,3′:9,10][1,6]oxazacycloundecino[8,7,6-hi]indole-8-carboxylic Acid]",–,19.8,–,–,–,8.4,20.8
"CCc1c2c(nn1C)C(CCN1CCC(F)(F)C1)OCCCCn1c(C(=O)O)c(CCCOc3cccc4cc(F)ccc34)c3ccc(Cl)c-2c31 (racemic) [Example 55, (rac)-4-chloro-(15-rac)-[2-(3,3-difluoropyrrolidin-1-yl)ethyl]-3-ethyl-7-{3-[(6-fluoronaphthalen-1-yl)oxy]propyl}-2-methyl-2,10,11,12,13,15-hexahydropyrazolo[4′,3′:9,10][1,6]oxazacycloundecino[8,7,6-hi]indole-8-carboxylic acid—2-hydroxypropane-1,2,3-tricarboxylic Acid Salt]",–,> 20,–,–,–,0.068,0.172
"Cc1c2c(nn1C)C(CCN1CCOCC1)OCCCCn1c(C(=O)O)c(CCCOc3cccc4cc(F)ccc34)c3ccc(Cl)c-2c31 (single isomer, unassigned; enantiomer 1) [Example 17, 4-chloro-7-{3-[(6-fluoronaphthalen-1-yl)oxy]propyl}-2,3-dimethyl-15-[2-(morpholin-4-yl)ethyl]-2,10,11,12,13,15-hexahydropyrazolo[4′,3′:9,10][1,6]oxazacycloundecino[8,7,6-hi]indole-8-carboxylic Acid—N-ethylethanamine (Enantiomer 1)]",–,> 20,–,–,0.201,0.0093,–
"CCc1c2c(nn1C)C(C(F)(F)F)OCCCCn1c(C(=O)O)c(CCCOc3cccc4ccccc34)c3ccc(Cl)c-2c31 (racemic) [Example 27, (rac)-4-Chloro-3-ethyl-2-methyl-7-{3-[(naphthalen-1-yl)oxy]propyl}-15-(trifluoromethyl)-2,10,11,12,13,15-hexahydropyrazolo[4′,3′:9,10][1,6]oxazacycloundecino[8,7,6-hi]indole-8-carboxylic Acid]",–,> 20,–,–,–,9.6,20.7
"CCc1c2c(nn1C)C(CC(C)(C)O)OCCCCn1c(C(=O)O)c(CCCOc3cccc4cc(F)ccc34)c3ccc(Cl)c-2c31 (racemic) [Example 52, (rac)-4-chloro-3-ethyl-7-{3-[(6-fluoronaphthalen-1-yl)oxy]propyl}-(15-rac)-(2-hydroxy-2-methylpropyl)-2-methyl-2,10,11,12,13,15-hexahydropyrazolo[4′,3′:9,10][1,6]oxazacycloundecino[8,7,6-hi]indole-8-carboxylic Acid]",–,14.7,–,–,–,0.28,3.19
